Assay results as given in patent publication US11384071B2, “Inhibitors of mechanotransduction to treat pain and modulate touch perception” (Max-Delbrück-Centrum für Molekulare Medizin in der …, priority 2016, dated 2022).

What was measured:
hsSTOML3 = molecular target: T1, hsSTOML3 (Homo sapiens, UniProt Q8TAV4); test: TriGFP assay of hsSTOML3 self-association in N2a cells, flow cytometry; assay type: cell-based; details: 20 μM, 16 h, vs vehicle
T1 construct: expressed in transfected cells; host or cells: N2a
Description: (a) The assay is based on the tripartite association between the two twenty amino-acids long GFP tags GFP10 and GFP11, which were fused to hsSTOML3 protein partners, and the complementary GFP1-9 detector (Reference 50). When hsSTOML3 proteins interact, GFP10 and GFP11 self-associate with GFP1-9 and reconstitute functional GFP.
N2a cells were cultured in 6-well plates to approximately 70% confluence; cells were co-transfected with plasmids encoding GFP1-9, STOML3-GFP10 and STOML3-GFP11 using PEI, as per manufacturer's instructions. The transfection reaction was allowed to proceed for 8 h before compound incubation at 20 μM final concentration. Twenty-four hours after transfection cells were collected, fixed with 4% PFA for 10 minutes and resuspended in PBS. Cell suspensions were used for flow cytometry analysis.
In this assay, N2a cells were co-transfected with plasmids encoding GFP1-9, STOML3-GFP10 and STOML3-GFP11 and incubated with either vehicle (0.4% DMSO) or OB-1 derivatives at 20 μM final concentration for 16 h. Twenty-four hours after transfection cells were collected, fixed with 4% PFA and resuspended in PBS.

[1] = tested on: cutaneous sensory afferents of the saphenous nerve; test: Ex vivo skin-nerve preparation after local injection into the paw; assay type: in vivo, mouse
Description: Mice were killed by CO2 inhalation for 2-4 min followed by cervical dislocation. The saphenous nerve and the shaved skin of the hind limb were dissected free and placed in an organ bath. The chamber was perfused with a synthetic interstitial fluid (SIF buffer) the composition of which was (in mM): NaCl, 123; KCl, 3.5; MgSO4, 0.7; NaH2PO4, 1.7; CaCl2), 2.0; sodium gluconate, 9.5; glucose, 5.5; sucrose, 7.5; and HEPES, 10 at a pH of 7.4. The skin was placed with the corium side up in the organ bath. The nerve was placed in an adjacent chamber on a mirror to aid fiber teasing under a stereomicroscope. Fine filaments were teased from the saphenous nerve and placed on the recording electrode.
For the electrical search protocol a micro electrode (1 MΩ) was gently maneuvered to contact the epineurium of the nerve trunk and an electrical stimulation was delivered at a one second interval with square wave pulses of […] duration. […] The electrical nerve stimulation was done at 2 distant sites of the saphenous nerve to trace electrically identified units to their receptive fields. Mechanical sensitivity of single units was tested by mechanical stimulation with a glass rod. For the mechanical search protocol, single units were identified by gentle mechanical stimulation of their receptive field with a glass rod. Mechanically-evoked spikes were visualized and the template saved in an oscilloscope. Then, a sharp tungsten metal electrode was placed in the receptive field and an electrically evoked spike was elicited with suprathreshold current pulses and the electrical latency, the time from the stimulation artifact to spike, was recorded. The distance between the stimulating and recording electrode was designated as the conduction distance. For each isolated fiber the conduction velocity was calculated by dividing conduction distance over electrical latency for the spike.
A computer-controlled nanomotor (Kleindiek, Reutlingen, Germany) was used to apply controlled displacement stimuli of known amplitude and velocity. The probe was a stainless steel metal rod and the diameter of the flat circular contact area was 0.8 mm containing a force transducer (Kleindiek, Reutlingen, Germany). The signal driving the movement of the linear motor and raw electrophysiological data were collected with a Powerlab 4.0 system (ADInstruments) and spikes were discriminated off-line with the spike histogram extension of the software.
We made subcutaneous injections of the OB-1 compound (250-500 pmol per paw) into the hairy skin of the mouse lateral foot innervated by the saphenous nerve and recorded from sensory afferents 3 h later using an ex vivo skin—nerve preparation^5,25.

[2] = tested on: 79 receptors and ion channels; test: Commercial in vitro pharmacology panel (cerep); assay type: binding; details: 20 μM, panel of 79 receptors and ion channels
Description: We next interrogated whether local application of OB-1 can ameliorate tactile-evoked pain behavior in neuropathic models. […] We decided to test this idea more directly by testing the effects of local OB-1 on the mechanical sensitivity of Stoml3^−/− mice with CCI. […] Off-target effects are an issue for any biologically active small molecule. We therefore tested the effects of 20 μM OB-1 in a commercially available in vitro pharmacology panel (www.cerep.fr) consisting of 79 receptors and ion channels.

Podocin = molecular target: T2, Podocin (Mus musculus, UniProt Q91X05); test: BiFC assay of podocin self-association; assay type: cell-based
T2 construct: expressed in transfected cells; host or cells: HEK293 (general statement on the BiFC assay)
Description: (§1) FIG. 8: Effects of STOML3 modulating molecules on other Stomatin-domain proteins. (a) BiFC signal development observed when cells were transfected with Stomatin-VC/-VN, STOML1-VC/-VN, STOML2-VC/-VN, STOML3-VC/-VN or Podocin-VC/-VN expression constructs respectively. […] (b) OB-1 was tested at two different concentrations (2 μm and 20 μm) using the BiFC assay where wild type STOML3 was used as both bait and prey.
(§2) In mammals STOML3 belongs to a family of five structurally conserved membrane proteins, including stomatin, STOML1, STOML2, and podocin^10,12-16, all of which self-associate via their stomatin-domain (FIG. 8a)^10. Self-association of stomatin-domain proteins can be monitored in HEK293 cells using Bimolecular Fluorescence Complementation (BiFC) whereby N- and C-terminal halves of the YFP molecule are tagged to the prey and bait protein STOML3^2,17 (FIG. 1a). Irreversible association of the YFP fragments produces fluorescence that increases linearly over time (FIG. 1b).

STOML1 = molecular target: T3, STOML1 (Mus musculus, UniProt Q8CI66); test: BiFC assay of STOML1 self-association; assay type: cell-based
T3 construct: expressed in transfected cells; host or cells: HEK293 (general statement on the BiFC assay)
Description: as §1, §2

diabetic mice (STZ) = test: Streptozotocin (STZ) painful diabetic neuropathy model, von Frey; assay type: in vivo, mouse
Description: Eight week old C57Bl/6 mice were used for diabetes experiments. Diabetes was induced. Briefly, 6 consecutive intraperitoneal injections of streptozotocin (STZ, Sigma-Aldrich, #S0130) were given with 24 h intervals at 60 mg/Kg body weight in citrate buffer (0.05M, pH 4.5) to induce diabetes. Blood glucose was maintained between 400 and 500 mg/dL throughout the experimental period. Mechanical sensitivity was measured in regular intervals and only those mice showing increased sensitivity to von Frey filaments as compared with basal sensitivity were selected for testing the effects of OB-1.
Von Frey filaments of increasing strength (0.07, 0.16, 0.4, 0.6, 1.0 and 1.4 g) are applied 5 times with at least 1 min interval to intraplantar surface of hind paws to test the mechanical sensitivity. […] Frequency of positive responses was recorded out of 5 stimuli and percent of withdrawal frequency was calculated. Threshold was calculated as the von Frey filament strength required to elicit 60% withdrawal frequency. Vehicle or OB-1 (approximately 20 μl solution, 250 pmol per paw) was injected subcutaneously into intraplantar surface of diabetic mice under mild isoflurane anesthesia and mechanical sensitivity was measured from both injected (ipsilateral) and non-injected (contralateral) paws at 4 and 24 h post-injection.

STOML2 = molecular target: T4, STOML2 (Mus musculus, UniProt Q99JB2); test: BiFC assay of STOML2 self-association; assay type: cell-based
T4 construct: expressed in transfected cells; host or cells: HEK293 (general statement on the BiFC assay)
Description: as §1, §2

T3 sequence (Q8CI66 whole entry): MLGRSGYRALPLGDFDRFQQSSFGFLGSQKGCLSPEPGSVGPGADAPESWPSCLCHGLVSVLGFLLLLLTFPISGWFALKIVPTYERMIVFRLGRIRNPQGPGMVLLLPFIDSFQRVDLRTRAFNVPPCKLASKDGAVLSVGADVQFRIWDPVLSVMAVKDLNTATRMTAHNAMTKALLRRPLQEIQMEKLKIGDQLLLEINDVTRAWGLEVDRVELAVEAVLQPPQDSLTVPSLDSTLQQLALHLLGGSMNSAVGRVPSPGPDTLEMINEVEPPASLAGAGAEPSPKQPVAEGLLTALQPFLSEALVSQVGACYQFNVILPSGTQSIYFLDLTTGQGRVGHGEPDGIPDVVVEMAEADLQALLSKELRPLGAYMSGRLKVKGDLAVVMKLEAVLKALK
T4 sequence (Q99JB2 29-353): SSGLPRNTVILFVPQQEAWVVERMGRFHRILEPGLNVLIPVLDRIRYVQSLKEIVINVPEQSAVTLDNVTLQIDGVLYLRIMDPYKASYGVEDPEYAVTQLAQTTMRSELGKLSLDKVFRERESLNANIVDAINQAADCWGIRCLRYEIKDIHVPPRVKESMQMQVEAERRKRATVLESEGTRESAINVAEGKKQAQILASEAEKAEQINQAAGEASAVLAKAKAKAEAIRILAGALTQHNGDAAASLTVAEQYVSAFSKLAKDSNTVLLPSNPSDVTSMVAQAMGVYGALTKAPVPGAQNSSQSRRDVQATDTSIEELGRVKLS
T1 sequence (Q8TAV4 whole entry): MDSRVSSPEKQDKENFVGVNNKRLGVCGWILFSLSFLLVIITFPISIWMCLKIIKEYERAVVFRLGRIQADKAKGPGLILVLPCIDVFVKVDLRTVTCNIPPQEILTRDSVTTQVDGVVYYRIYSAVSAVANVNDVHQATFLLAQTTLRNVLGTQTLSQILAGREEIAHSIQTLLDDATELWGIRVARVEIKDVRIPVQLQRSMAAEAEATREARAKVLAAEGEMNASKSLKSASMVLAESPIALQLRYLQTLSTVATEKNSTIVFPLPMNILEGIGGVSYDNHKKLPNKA
T2 sequence (Q91X05 whole entry): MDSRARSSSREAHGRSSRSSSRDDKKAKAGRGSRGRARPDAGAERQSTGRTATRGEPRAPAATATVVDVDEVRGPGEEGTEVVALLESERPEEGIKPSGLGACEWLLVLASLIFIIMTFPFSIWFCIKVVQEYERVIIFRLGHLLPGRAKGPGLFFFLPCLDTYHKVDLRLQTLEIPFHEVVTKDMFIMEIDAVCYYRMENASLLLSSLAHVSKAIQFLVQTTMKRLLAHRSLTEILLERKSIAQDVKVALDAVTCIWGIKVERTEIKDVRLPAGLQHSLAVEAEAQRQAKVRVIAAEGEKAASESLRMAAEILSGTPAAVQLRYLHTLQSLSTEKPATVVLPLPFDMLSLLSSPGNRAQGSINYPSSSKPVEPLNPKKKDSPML

hsSTOML3 self-association (GFP signal intensity) (hsSTOML3): strongly reduce | proportion of mechanoreceptor types and mechanosensitivity of remaining Aβ-fiber mechanoreceptors (RAMs, SAMs) ([1]; OB-1 treated skin vs controls): unchanged | receptors with significant inhibition of specific ligand binding [2]: 6/79 | oligomerization of Podocin (BiFC) (Podocin): does not affect | self-association of STOML1 (BiFC) (STOML1): effective inhibitor | self-association of STOML2 (BiFC) (STOML2): effective inhibitor
SMILES: CCOC(=O)c1c(-c2ccccc2)oc2ccc(Oc3c([N+](=O)[O-])ncn3C)cc12 [OB-1, Ethyl 5-((1-methyl-4-nitro-1H-imidazol-5-yl)oxy)-2-phenylbenzofuran-3-carboxylate]
fibers for which no mechanosensitive receptive field could be found (printed Aβ-fibers) ([1]; 8/38 fibers vs 5% in controls, not significantly different): 21% | Aβ-fibers lacking a mechanosensitive receptive field ([1]; 3 h after 250-500 pmol per paw s.c., 19/44 fibers, vehicle less than 7%): over 40% | proportion of C-fibers that lack a mechanosensitive receptive field ([1]; 3 h after local treatment): no change | firing rates of C-mechanonociceptors (C-Ms) to suprathreshold mechanical stimuli ([1]; OB-1 treated skin): not significantly attenuated | mechanical threshold for activation of C-mechanoheat fibers ([1]; OB-1 treated skin, vehicle 106.9±17.4 mN): 196.5±35.6 mN | stimulus response function of C-MH fibers ([1]; ascending displacements 32-1024 μm, vs vehicle): significantly less responsive | mechanosensitivity of A-mechanonociceptors (AM) ([1]; displacements 32-1024 μm): no changes | proportion of Aβ-fibers insensitive to mechanical stimuli ([1]; female mice as in male mice): almost identical proportion | mean force thresholds for C-M fiber ([1]; vehicle vs OB-1): not different | mechanical hypersensitivity (diabetic mice (STZ); 250 pmol per paw, 4 h after treatment): substantially reversed | mechanical hypersensitivity, mean 60% withdrawal threshold (diabetic mice (STZ); 24 h after a single treatment): returned to pre-drug treatment levels
